Active and inactive are the calls of the source. The calls are words filed in the database; no cut-off is given here.
Experiments:
[1] = molecular target: Transient receptor potential cation channel subfamily V member 1 (Rattus norvegicus) (UniProt O35433); assay: Antagonist activity at rat TRPV1 expressed in CHO cells assessed as inhibition of 45Ca2+ uptake relative to control; format: functional, cell-based; set-up: scale not given: the % may be the effect or the level left
[2] = molecular target: T1, Transient receptor potential cation channel subfamily V member 1 (Rattus norvegicus, UniProt O35433); assay: Antagonist activity at rat TRPV1 expressed in CHO cells assessed as inhibition of 45Ca2+ uptake; format: functional, cell-based
T1 sequence (O35433 whole entry): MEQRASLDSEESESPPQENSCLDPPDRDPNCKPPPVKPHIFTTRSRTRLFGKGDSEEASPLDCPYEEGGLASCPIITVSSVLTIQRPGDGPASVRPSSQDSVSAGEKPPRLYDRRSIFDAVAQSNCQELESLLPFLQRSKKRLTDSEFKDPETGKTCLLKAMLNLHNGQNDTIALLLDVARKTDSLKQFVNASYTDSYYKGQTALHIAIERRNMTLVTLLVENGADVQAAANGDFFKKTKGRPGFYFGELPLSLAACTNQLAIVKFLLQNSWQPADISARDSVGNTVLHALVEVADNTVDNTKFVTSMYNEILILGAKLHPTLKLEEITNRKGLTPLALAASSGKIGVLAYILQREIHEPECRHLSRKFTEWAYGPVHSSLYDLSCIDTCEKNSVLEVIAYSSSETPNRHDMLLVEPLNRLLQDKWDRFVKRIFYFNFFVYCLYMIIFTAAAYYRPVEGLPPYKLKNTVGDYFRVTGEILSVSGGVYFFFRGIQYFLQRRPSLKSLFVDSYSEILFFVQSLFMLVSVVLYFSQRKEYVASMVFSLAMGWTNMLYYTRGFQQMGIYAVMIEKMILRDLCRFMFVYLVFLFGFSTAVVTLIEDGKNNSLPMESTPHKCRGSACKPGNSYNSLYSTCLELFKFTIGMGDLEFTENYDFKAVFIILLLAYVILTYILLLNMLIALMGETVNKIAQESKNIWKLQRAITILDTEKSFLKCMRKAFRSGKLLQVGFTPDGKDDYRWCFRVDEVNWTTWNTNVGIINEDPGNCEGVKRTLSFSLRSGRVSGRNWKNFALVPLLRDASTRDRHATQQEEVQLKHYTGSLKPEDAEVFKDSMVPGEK

[3] = molecular target: T1, Transient receptor potential cation channel subfamily V member 1; assay: Displacement of [3H]RTX from rat TRPV1 expressed in CHO cells; format: cell-based
[4] = molecular target: Transient receptor potential cation channel subfamily V member 1 (Rattus norvegicus) (UniProt O35433); assay: Agonist activity at rat TRPV1 expressed in CHO cells assessed as induction of 45Ca2+ uptake at 30 uM relative to capsaicin; format: functional, cell-based

Sequence of Transient receptor potential cation channel subfamily V member 1 (Rattus norvegicus) (O35433 whole entry): as above

Structure (SMILES) | Activity [1] [%] | Ki [2] [µM] | Ki [3] [µM] | Activity [4]
CC(C)(C)C(=O)OCC(CCc1ccc(C(C)(C)C)cc1)NC(=S)NCc1ccc(NS(C)(=O)=O)cc1 (stereo unspecified) |  | 0.286 | 0.366 | inactive
CC(C)(C)C(=O)OCC(C/N=C(\S)NCc1ccc(NS(C)(=O)=O)cc1)Cc1ccc(C(C)(C)C)cc1 (stereo unspecified) |  |  |  | 40%
Cc1ccc(CC(COC(=O)C(C)(C)C)NC(=S)NCc2ccc(NS(C)(=O)=O)cc2)cc1C (stereo unspecified) | 48 |  | 0.58 | 19%
CC(C)(C)C(=O)OCC(Cc1ccc(C(C)(C)C)cc1)NC(=S)NCc1ccc(NS(C)(=O)=O)cc1 (stereo unspecified) | 31 |  | 0.416 | 8%
Cc1ccc(CC(CN/C(S)=N/Cc2ccc(NS(C)(=O)=O)cc2)COC(=O)C(C)(C)C)cc1C (stereo unspecified) |  |  |  | 15%
Cc1ccc(CC(CNC(=S)NCc2ccc(NS(C)(=O)=O)c(F)c2)COC(=O)C(C)(C)C)cc1C (stereo unspecified) |  |  |  | inactive
Cc1ccc(CCC(COC(=O)C(C)(C)C)NC(=S)NCc2ccc(NS(C)(=O)=O)cc2)cc1C (stereo unspecified) |  | 0.0337 | 0.39 | 5%

The next lines start with the values.

Activity [1] [%] | Ki [2] [µM] | Ki [3] [µM] | Activity [4] | Structure (SMILES)
46 | 0.94 | 0.197 | 46% | CC(C)(C)C(=O)OCC(NC(=S)NCc1ccc(NS(C)(=O)=O)cc1)c1ccc(C(C)(C)C)cc1 (stereo unspecified)
 | 0.179 | 0.115 | inactive | CC(C)(C)C(=O)OCC(Cc1ccc(C(C)(C)C)cc1)NC(=S)NCc1ccc(NS(C)(=O)=O)c(F)c1 (stereo unspecified)
 | 0.152 | 0.19 | inactive | CC(C)(C)C(=O)OCC(CCc1ccc(C(C)(C)C)cc1)NC(=S)NCc1ccc(NS(C)(=O)=O)c(F)c1 (stereo unspecified)
 | 0.116 | 0.069 | inactive | CC(C)(C)C(=O)OCC(CNC(=S)NCc1ccc(NS(C)(=O)=O)c(F)c1)c1ccc(C(C)(C)C)cc1 (stereo unspecified)
72 | 0.213 | 0.244 | 35% | CC(C)(C)C(=O)OCC(NC(=S)NCc1ccc(NS(C)(=O)=O)c(F)c1)c1ccc(C(C)(C)C)cc1 (stereo unspecified)
 | 0.111 | 0.12 | inactive | Cc1ccc(CCC(COC(=O)C(C)(C)C)NC(=S)NCc2ccc(NS(C)(=O)=O)c(F)c2)cc1C (stereo unspecified)
 | 0.091 | 0.143 | inactive | CC(C)(C)C(=O)OCC(CNC(=S)NCc1ccc(NS(C)(=O)=O)cc1)c1ccc(C(C)(C)C)cc1 (stereo unspecified)
 | 0.65 | 0.233 | inactive | Cc1ccc(CC(COC(=O)C(C)(C)C)NC(=S)NCc2ccc(NS(C)(=O)=O)c(F)c2)cc1C (stereo unspecified)

— ChEMBL document CHEMBL2029279, “Structure-activity relationships and molecular modeling of the N-(3-pivaloyloxy-2-benzylpropyl)-N'-[4-(methylsulfonylamino)benzyl] thiourea template for TRPV1 antagonism” (Bioorg Med Chem Lett, 2012)
